The record followed here is ChEMBL document CHEMBL5465560, “Selectivity Literature for EUbOPEN Chemogenomic Library” (2024).

Experiment [1] concerns Epidermal growth factor receptor (Homo sapiens), P00533 [T790M]. Particulars: at 10 µM.
The target of experiment [2] is T1, Serine/threonine-protein kinase TAO2 (Homo sapiens) (UniProt Q9UL54).
T1 sequence (whole entry): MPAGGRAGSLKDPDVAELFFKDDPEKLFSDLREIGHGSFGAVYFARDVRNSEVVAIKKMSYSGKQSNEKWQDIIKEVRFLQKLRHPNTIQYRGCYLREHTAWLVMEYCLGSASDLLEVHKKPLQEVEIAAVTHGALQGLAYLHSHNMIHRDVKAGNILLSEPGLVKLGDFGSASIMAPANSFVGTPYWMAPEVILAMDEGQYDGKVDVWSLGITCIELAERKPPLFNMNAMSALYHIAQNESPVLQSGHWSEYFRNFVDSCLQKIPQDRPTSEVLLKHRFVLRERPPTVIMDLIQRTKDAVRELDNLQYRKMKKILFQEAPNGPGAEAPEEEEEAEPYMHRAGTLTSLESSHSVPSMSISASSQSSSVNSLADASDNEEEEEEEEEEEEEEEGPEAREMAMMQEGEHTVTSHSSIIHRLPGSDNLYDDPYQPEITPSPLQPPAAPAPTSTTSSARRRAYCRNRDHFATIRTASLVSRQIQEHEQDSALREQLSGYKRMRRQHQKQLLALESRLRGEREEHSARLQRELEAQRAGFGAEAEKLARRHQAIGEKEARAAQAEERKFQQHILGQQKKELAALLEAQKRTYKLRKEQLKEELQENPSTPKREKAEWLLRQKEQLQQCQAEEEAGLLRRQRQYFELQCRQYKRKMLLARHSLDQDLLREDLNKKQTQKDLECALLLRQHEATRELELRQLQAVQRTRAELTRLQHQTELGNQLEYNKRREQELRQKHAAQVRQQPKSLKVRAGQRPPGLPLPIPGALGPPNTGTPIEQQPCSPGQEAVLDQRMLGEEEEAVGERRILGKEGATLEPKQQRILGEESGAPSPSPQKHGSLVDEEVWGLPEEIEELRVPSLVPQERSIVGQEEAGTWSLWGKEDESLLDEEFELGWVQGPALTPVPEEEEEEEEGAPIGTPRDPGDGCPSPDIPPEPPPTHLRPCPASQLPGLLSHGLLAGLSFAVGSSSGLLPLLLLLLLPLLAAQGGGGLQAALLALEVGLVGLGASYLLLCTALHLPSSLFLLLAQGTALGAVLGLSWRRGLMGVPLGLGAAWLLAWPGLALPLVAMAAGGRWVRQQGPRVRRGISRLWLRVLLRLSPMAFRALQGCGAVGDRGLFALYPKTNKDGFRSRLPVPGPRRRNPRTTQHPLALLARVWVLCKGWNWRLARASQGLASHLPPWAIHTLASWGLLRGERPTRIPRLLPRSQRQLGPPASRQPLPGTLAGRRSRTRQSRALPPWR
In words: Selectivity interaction (ActivX KiNativ screen (kinase selectivity in THP-1 cell lysates)) EUB0000639a TAOK2. In kind it is subcellular. The settings on record: lysate.

The target in experiment [3] is T2, Mitogen-activated protein kinase kinase kinase 7 (Homo sapiens) (UniProt O43318).
T2 sequence (whole entry): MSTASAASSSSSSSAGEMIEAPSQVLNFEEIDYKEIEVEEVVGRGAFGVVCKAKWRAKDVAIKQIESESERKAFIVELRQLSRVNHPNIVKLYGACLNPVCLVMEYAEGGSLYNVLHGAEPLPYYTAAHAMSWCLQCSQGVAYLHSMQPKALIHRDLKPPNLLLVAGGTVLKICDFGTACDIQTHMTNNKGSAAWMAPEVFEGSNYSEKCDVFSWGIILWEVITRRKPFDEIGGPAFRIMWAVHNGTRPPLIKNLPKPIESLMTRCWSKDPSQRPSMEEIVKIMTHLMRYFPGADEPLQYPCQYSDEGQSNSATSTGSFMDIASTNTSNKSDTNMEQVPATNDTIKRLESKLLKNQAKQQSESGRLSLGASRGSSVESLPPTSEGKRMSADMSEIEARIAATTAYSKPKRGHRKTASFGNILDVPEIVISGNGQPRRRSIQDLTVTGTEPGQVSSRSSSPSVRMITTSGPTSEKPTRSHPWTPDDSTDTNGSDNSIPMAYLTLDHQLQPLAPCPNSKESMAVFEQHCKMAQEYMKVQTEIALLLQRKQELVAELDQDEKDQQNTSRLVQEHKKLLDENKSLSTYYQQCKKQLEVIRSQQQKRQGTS
In words: Selectivity interaction (Ambit KINOMEscan and KiNATiv profiling in Jurkat cells) EUB0000090b MAP3K7. The settings on record: at 1 µM. In kind it is cell-based.

Experiment [4] deals with T3, Serine/threonine-protein kinase BRSK1 (Homo sapiens) (UniProt Q8TDC3).
T3 sequence (whole entry): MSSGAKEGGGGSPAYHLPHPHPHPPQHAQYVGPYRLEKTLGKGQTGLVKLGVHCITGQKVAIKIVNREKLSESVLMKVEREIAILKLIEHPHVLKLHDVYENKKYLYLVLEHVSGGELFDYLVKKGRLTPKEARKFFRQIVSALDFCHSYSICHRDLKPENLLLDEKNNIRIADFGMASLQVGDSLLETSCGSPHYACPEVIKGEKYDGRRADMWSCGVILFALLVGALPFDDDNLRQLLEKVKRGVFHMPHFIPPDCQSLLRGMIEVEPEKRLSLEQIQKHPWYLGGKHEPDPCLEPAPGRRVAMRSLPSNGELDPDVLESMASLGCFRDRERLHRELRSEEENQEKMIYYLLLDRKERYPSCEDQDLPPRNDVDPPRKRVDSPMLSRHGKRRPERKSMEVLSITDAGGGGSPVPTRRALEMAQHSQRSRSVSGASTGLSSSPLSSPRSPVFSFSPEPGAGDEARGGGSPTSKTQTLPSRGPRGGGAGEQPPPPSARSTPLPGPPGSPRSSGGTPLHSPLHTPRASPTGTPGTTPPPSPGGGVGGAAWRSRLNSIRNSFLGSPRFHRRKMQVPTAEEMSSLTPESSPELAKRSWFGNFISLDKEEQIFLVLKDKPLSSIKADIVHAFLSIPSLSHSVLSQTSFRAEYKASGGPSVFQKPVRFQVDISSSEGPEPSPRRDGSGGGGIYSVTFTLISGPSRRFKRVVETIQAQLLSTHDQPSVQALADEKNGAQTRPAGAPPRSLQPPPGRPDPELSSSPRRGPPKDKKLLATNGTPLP
In words: Selectivity interaction (Ambit KINOMEscan and KiNATiv profiling in Jurkat cells) EUB0000090b BRSK1. The format is cell-based. The settings on record: at 1 µM.

The target in experiment [5] is Zinc finger CW-type PWWP domain protein 1 (Homo sapiens) (UniProt Q9H0M4). In words: Selectivity interaction (PWWP, WD40, and Tudor domain panel (DSLS measurements, literature)) EUB0000270b ZCWPW1.
Chain of Zinc finger CW-type PWWP domain protein 1 (Homo sapiens) (Q9H0M4 whole entry, the tested form may be a part, canonical isoform): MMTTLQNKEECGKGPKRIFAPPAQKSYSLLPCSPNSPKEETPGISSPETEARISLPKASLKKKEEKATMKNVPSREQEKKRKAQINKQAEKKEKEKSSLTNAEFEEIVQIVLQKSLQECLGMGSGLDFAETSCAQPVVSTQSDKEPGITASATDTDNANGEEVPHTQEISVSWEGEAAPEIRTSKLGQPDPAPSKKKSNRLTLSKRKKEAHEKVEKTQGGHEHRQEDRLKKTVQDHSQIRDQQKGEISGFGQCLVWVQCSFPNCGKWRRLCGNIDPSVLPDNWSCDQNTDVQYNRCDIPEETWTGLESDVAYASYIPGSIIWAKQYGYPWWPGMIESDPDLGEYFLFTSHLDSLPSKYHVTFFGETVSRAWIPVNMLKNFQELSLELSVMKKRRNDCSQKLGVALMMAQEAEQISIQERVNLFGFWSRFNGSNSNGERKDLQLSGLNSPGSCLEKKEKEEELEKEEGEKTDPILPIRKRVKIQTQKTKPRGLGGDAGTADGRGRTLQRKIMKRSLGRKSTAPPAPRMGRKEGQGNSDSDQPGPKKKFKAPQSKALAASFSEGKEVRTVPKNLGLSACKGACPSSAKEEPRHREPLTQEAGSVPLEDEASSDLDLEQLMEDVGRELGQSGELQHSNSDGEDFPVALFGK
The target in experiment [6] is Casein kinase I isoform epsilon (Homo sapiens, UniProt P49674). In words: Selectivity interaction (KinomeScan (DiscoverX)) EUB0000092b CSNK1E. The settings on record: at 10 µM.
Chain of Casein kinase I isoform epsilon (P49674 whole entry, looked up, canonical isoform): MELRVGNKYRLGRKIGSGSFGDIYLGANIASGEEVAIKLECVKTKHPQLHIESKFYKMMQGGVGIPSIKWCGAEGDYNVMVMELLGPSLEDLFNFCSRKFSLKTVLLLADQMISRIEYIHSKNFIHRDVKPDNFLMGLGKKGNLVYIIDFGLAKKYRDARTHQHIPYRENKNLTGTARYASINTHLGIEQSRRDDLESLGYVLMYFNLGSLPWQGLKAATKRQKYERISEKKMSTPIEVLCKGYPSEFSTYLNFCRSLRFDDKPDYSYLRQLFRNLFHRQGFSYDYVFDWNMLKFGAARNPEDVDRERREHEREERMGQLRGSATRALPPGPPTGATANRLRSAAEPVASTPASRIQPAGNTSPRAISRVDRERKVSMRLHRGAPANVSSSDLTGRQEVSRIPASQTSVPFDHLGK

Chain of Epidermal growth factor receptor (Homo sapiens), P00533 [T790M] (P00533 whole entry T790M): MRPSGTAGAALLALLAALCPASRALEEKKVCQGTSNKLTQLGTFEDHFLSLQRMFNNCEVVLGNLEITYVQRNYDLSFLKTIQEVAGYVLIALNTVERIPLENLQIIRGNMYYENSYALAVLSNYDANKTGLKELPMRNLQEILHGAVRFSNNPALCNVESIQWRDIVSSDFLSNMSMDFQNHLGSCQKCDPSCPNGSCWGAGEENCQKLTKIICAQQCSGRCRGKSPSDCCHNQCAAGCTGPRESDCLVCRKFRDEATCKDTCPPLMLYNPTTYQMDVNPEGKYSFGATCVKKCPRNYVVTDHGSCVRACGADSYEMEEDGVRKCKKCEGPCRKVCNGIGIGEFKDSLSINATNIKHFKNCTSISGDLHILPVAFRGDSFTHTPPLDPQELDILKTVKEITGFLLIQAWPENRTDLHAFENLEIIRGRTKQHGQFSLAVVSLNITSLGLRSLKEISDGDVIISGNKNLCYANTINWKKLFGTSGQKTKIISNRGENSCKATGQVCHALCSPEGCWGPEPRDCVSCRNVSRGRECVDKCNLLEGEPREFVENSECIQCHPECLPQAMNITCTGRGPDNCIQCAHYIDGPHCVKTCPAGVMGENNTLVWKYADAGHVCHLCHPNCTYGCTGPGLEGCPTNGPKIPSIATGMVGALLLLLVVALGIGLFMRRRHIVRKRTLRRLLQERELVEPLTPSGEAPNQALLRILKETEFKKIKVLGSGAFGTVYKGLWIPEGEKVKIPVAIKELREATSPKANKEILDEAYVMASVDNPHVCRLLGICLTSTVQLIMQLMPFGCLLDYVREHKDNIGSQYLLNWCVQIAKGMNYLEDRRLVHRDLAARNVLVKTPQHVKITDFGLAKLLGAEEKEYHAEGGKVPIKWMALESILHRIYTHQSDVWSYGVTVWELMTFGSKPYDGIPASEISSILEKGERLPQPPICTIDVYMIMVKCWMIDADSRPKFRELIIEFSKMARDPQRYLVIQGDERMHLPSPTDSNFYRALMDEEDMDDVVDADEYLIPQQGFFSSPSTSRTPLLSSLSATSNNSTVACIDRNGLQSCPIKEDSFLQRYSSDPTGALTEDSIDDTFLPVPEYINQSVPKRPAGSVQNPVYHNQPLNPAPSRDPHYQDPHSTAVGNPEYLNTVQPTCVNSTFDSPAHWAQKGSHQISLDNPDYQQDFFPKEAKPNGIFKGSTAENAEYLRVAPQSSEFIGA

Consider `Cc1cc([C@@H](C)Nc2ccccc2C(=O)O)c2nc(N3CCOCC3)cc(=O)n2c1` [AZD-6482], for which the % of control in experiment [1] stood at 100%.

As to `CC[C@@H]1[C@H](F)C(=O)N[C@@H]1COc1nccc2cc(C(N)=O)c(OC)cc12` [ZIMLOVISERTIB], the % of inhibition in experiment [2] (at 0.01 µM) is 17.1%; in experiment [2] (at 0.04 µM), 2%; in experiment [2] (at 0.2 µM) it was -6.6%; in experiment [2] (at 1 µM), -12.9%; in experiment [2] (at 5 µM), 16.2%.

As for `CN(C)C/C=C/C(=O)Nc1ccc(C(=O)N2CCCC(Nc3ncc(Cl)c(-c4c[nH]c5ccccc45)n3)C2)cc1` (stereo not given), the % of control is 90% in experiment [3] and 84% in experiment [4].

Take `Cc1cc(CN)cc(C)c1-c1ncn(C)c1-c1cncn1C`: in experiment [5], the dTagg stood at 0 K.

`CCC(=O)N1CCN(c2ccc(-n3c(=O)ccc4cnc5ccc(-c6cnc7ccccc7c6)cc5c43)cc2C(F)(F)F)CC1` displayed a % of control in experiment [6] of 59%.
